system: Plasmodium falciparum; test: GSK_TCMDC: Inhibition of Plasmodium falciparum 3D7 in whole erythrocytes, using parasite LDH activity as an index of growth.; assay type: functional, organism-based; conditions: Plasmodium falciparum, 3D7

| SMILES | XC50 [nM] |
| --- | --- |
| CCN1CCC(N(Cc2ccc(-c3ccc(C(F)(F)F)cc3)cc2)C(=O)Cn2c(CCc3cccc(F)c3F)cc(=O)c3c2CCCC3)CC1 | 755 |
| CCN1CCC(N(CCCCCCc2ccc(C(F)(F)F)cc2)C(=O)Cn2c(CCc3cccc(F)c3F)cc(=O)c3ccccc32)CC1 | 927 |
| O=[N+]([O-])c1ccc2nccnc2c1 | 1070 |
| Cc1cc(Nc2ccc3ccccc3c2)n2ncnc2n1 | 173 |
| CN1CCC(N2CCN(Cc3cccc(-c4cccc(-c5nc6ccccc6[nH]5)c4)c3)CC2)CC1 | 194 |
| COc1ccc(CCNc2nc(NCc3ccccc3)c3cc(OC)c(OC)cc3n2)cc1OC | 326 |
| COC(=O)c1cc(C(O)CNC(C)CCCc2ccccc2)ccc1O (stereo unspecified) | 742 |
| Cn1nccc1C(=O)NCCNCc1ccc(-c2ccc(-c3nc4cc(C(F)(F)F)ccc4[nH]3)cc2)cc1 | 145 |
| CC[C@H]1CN2CC[C@@H]1C[C@H]2[C@H](O)c1cc(-c2cc(Cl)cc(Cl)c2)nc2ccc(OC)cc12 | 235 |
| COc1c(CCNCCCCNCCc2cc(Cl)c3ccccc3c2OC)cc(Cl)c2ccccc12 | 168 |
| COc1cc(Cc2cnc(N)nc2N)ccc1Oc1ccc(N)cc1 | 868 |
| CCNc1cc(-c2cccc(OC)c2)nc(Nc2ccc(F)cc2)n1 | 1270 |
| Cc1cc(NCc2ccc(F)cc2)nc2cc(O)ccc12 | 762 |
| FC(F)(F)c1ccc2[nH]ccc(=NN=CC=Cc3ccccc3)c2c1 | 1020 |
| O=[N+]([O-])c1ccc(Oc2c(Cl)cc(S(=O)(=O)NC3CCC(CN4CCC(c5c[nH]c6ccccc56)CC4)CC3)cc2Cl)c(Cl)c1 (stereo unspecified) | 758 |
| Cc1cc(C=C(P(=O)(OC(C)C)OC(C)C)P(=O)(OC(C)C)OC(C)C)c2ccccc2c1O | 1080 |
| CCNc1cc(C(=O)N[C@@H](Cc2ccccc2)[C@H](O)CNCCC(C)c2ccccc2)cc(N2CCCC2=O)c1 (stereo partly specified) | 511 |
| O=c1cc(NCCC(CNCCc2ccccc2)NCc2cc(Br)cc(Br)c2)[nH]c2ccccc12 (stereo unspecified) | 514 |
| N=c1n(Cc2ccccc2)c2ccccc2n1CC(O)c1ccc(Cl)c(Cl)c1 (stereo unspecified) | 828 |
| C=CCN1C(=O)CN(S(=O)(=O)c2ccc(-n3nc(C)cc3C)cc2)C1=S | 941 |
| Fc1ccc2[nH]c(-c3ccc(-c4ccc(CNCC5CCCO5)cc4)s3)nc2c1 (stereo unspecified) | 599 |
| CCn1c(-c2nonc2N)nc2cnc(Oc3cccc(NC(=O)c4ccc(OCCN(C(C)C)C(C)C)cc4)c3)cc21 | 780 |
| CCCc1cc(OC)c(C[C@@H]2c3cc(O)c(Cl)cc3CCN2C)cc1OC | 722 |
| CN(Cc1ccccc1)C(=O)CCNS(=O)(=O)c1cc(Br)cnc1N | 1130 |

| SMILES | XC50 [nM] |
| --- | --- |
| COc1ccc2cc(-c3nc(-c4c(Cl)cccc4Cl)[nH]c3-c3ccnc(NCCCN4CCCCC4C)c3)ccc2c1 (stereo unspecified) | 948 |
| COc1ccc(Nc2ncc3c(-c4cccc(NC(=O)Cc5ccc(F)cc5)c4)c[nH]c3n2)cc1OC | 594 |
| CN(C)c1ccc(CN2CCCCC(NC(=O)c3cc(-c4ccccc4Cl)cs3)C2)cc1 (stereo unspecified) | 1060 |
| COc1cccc2[nH]c(NCCCNCc3cc(Br)cc(Br)c3)nc12 | 950 |
| CC(CN(C)C)C(=O)Nc1ccc(-c2cccc(-c3nc4ccccc4[nH]3)c2)cc1 (stereo unspecified) | 722 |
| COc1ccc(CNc2ccnc3cc(OC)ccc23)cc1 | 766 |
| O=C(CN1CCC2(CCC1=O)CC(=O)c1ccccc1O2)NCCN1CCOCC1 (stereo unspecified) | 221 |
| NC1=NC2(CCCC2)N(c2ccc(Cl)cc2)C(N)=N1 | 414 |
| N=C(N)Nc1ccc(CCc2ccc(NC(=N)N)cc2)cc1 | 289 |
| CCCNC(=O)Nc1ccc(N(C)c2ccnc(NC3CC3)n2)cc1 | 618 |
| CC(C)Cn1cc2c(ccc3nc(N)nc(N)c32)n1 | 303 |
| Cc1cc(Cc2ccc(S(=O)(=O)c3cc4c(cc3O)CCN(C)CC4)cc2)ccc1Cl | 911 |
| CC(=O)Nc1nc(C(=O)Nc2cccc(-c3ccc(-c4nc5cccc(C)c5[nH]4)cc3)c2)cs1 | 232 |
| CCN(CC)CCNc1nc(C=Cc2ccc(Cl)cc2)nc2cc3ccccc3cc12 | 147 |
| O=C(O)CCc1ccc(-c2c[nH]c3ncc(-c4ccc5ncccc5c4)cc23)cc1 | 302 |
| COc1ccc(CNC2CCN(C)CC2)cc1-c1ccc(S(=O)(=O)NCc2ccccc2)c(C)c1 | 992 |
| O=C(NCCN1CCOCC1)c1ccc(O)c(-c2cccc(C(F)(F)F)c2)c1 | 752 |
| CCCOc1ccc(N2C(N)=NC(N)=NC2(C)C)cc1 | 487 |
| Cn1ccnc1S(=O)(=O)CCNCc1ccc(-c2ccc3ncnc(Nc4ccc(OCc5cccc(F)c5)c(Cl)c4)c3c2)o1 | 701 |
| Cc1ccc(-c2nc(Nc3ccncc3)c3ccccc3n2)s1 | 830 |
| O=C(Cn1c(=O)oc2ccccc21)N1CCC(n2c(=O)n(CCCN3CCOCC3)c3ccccc32)CC1 | 774 |
| COc1ccc2c(=NN=C(C)c3ccccn3)cc(C)[nH]c2c1 | 722 |
| Cc1cc(-c2ccc3c(c2)CCN(CCC2CCC(NC(=O)/C=C/c4ccccc4F)CC2)CC3)on1 (stereo unspecified) | 811 |
| COc1cccc(Nc2nccc(NCC(O)c3ccc(C(F)(F)F)cc3)n2)c1 (stereo unspecified) | 659 |

| SMILES | XC50 [nM] |
| --- | --- |
| COc1ccc(S(=O)(=O)NCCC2CCN(CCCCCNC(=O)C=Cc3ccc(Cl)c(Cl)c3)CC2)cc1 | 957 |
| CN1CCN(c2cc(NC(=O)Nc3ccc(-c4ccncc4)c(Cl)c3)ccc2Br)CC1 | 899 |
| CC(C)(C)C1CC(=O)CC2C(=O)N(c3ccc(Br)cc3)C(=O)C21 (stereo unspecified) | 934 |
| c1cc(-c2ccc(CNCc3ccc(-c4csnn4)cc3)cc2)cc(-c2nc3ccccc3[nH]2)c1 | 158 |
| Fc1cccc(-c2ccc3c(c2)CC(NCc2c[nH]c4cnccc24)C3)c1 (stereo unspecified) | 480 |
| O=C(c1ccc(OCCn2ccnc2)cc1)N1CCC(c2ccc(Br)cc2)C1 (stereo unspecified) | 116 |
| CS(=O)(=O)c1ccc(-c2cnc(N)c(-c3cccc(CO)c3)c2)cc1 | 939 |
| c1ccc(CCNc2ccnc(Nc3ccc4cn[nH]c4c3)n2)cc1 | 467 |
| CC1CN(c2cnn(Cc3cccc(NC(=O)Nc4cccc(C(F)(F)F)c4)c3)c(=O)c2Cl)CC(C)N1 (stereo unspecified) | 818 |
| O=C(/C=C/c1ccc(Cl)cc1Cl)N1CCC(CCN2CCC(c3c[nH]c4ccccc34)CC2)CC1 | 796 |
| CCc1cccc(C)c1-n1nc(-c2cc(C(C)(C)C)oc2C)cc1N | 658 |
| c1ccc2c(NCCCCCCCNc3ccnc4ccccc34)ccnc2c1 | 169 |
| CCOc1cc(C)ccc1C1CCN(CCCCNC(=O)c2ccc(-c3ccc(C(F)(F)F)cn3)cc2)CC1 | 787 |
| O=C(CSc1nc2ccc([N+](=O)[O-])cc2s1)Nc1ccccc1-c1ccccc1 | 1170 |
| Cc1cc(NC2CCN(CC3CCCCC3)C2)nc(Nc2ccc(Cl)cc2)n1 (stereo unspecified) | 404 |
| O=C(Nc1cccc(-c2nc3ccccc3[nH]2)c1)c1ccc(-c2cccc([N+](=O)[O-])c2)o1 | 151 |
| CCc1c(C)nc2nc(Cc3cccc(F)c3)nn2c1N1CCN(c2ccccn2)CC1 | 750 |
| Cc1nc(NCc2ccccc2)cc(NCC(O)c2ccc(O)cc2)n1 (stereo unspecified) | 1230 |
| NS(=O)(=O)c1ccc(Nc2nccc(-c3c(-c4cccc(NC(=O)c5c(F)cccc5F)c4)nn4ccccc34)n2)cc1 | 762 |
| CC(C)(C)c1ccc(CN2CCCCC(NC(=O)c3cc(-c4cccc(F)c4)cs3)C2)cc1 (stereo unspecified) | 783 |
| Cc1cc(C(=O)Nc2ccc3c(c2)CCN3C2CCN(Cc3ccc(F)cc3Cl)C2)no1 (stereo unspecified) | 189 |
| CN1CCCc2ccc(NC(=O)c3ccc(-c4cc(C(F)(F)F)nn4C)s3)cc2C1 | 880 |
| CN(C)CCCOc1ccc(CCCCc2ccc(Cl)cc2C(=O)c2ccccc2)cc1 | 1030 |
